According to the supplement of paper PMC11451515:

Tested on: NOMO1
Experiment: cell viability relative to DMSO control; higher = less cytotoxic
Conditions: 48 h
Outline: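 NOMO1 or SEM cells were plated at 500 cells/well and P12-Ichikawa cells at 1000 cells/well in 1536-well plates (5 μl), after each leukemia line had been adapted for at least four passages in each medium. Pin dosing delivered library compounds in DMSO at 11 threefold concentrations, 47 μM to 0.79 nM. CellTiter-Glo One luminescence was read after 48 h at 37°C. Viability is reported as a per-plate percentage of DMSO wells, with cell-free wells as background.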

[1] = HPLM + 10% dialyzed FBS, 0.000781 µM
[2] = HPLM + 10% dialyzed FBS, 0.00234 µM
[3] = HPLM + 10% dialyzed FBS, 0.00702 µM
[4] = HPLM + 10% dialyzed FBS, 0.0211 µM
[5] = HPLM + 10% dialyzed FBS, 0.0632 µM
[6] = HPLM + 10% dialyzed FBS, 0.19 µM
[7] = HPLM + 10% dialyzed FBS, 0.569 µM
[8] = HPLM + 10% dialyzed FBS, 1.71 µM
[9] = HPLM + 10% dialyzed FBS, 5.12 µM
[10] = HPLM + 10% dialyzed FBS, 15.4 µM
[11] = HPLM + 10% dialyzed FBS, 46.1 µM
[12] = RPMI 5 mM glucose + 10% dialyzed FBS, 0.000781 µM
[13] = RPMI 5 mM glucose + 10% dialyzed FBS, 0.00234 µM
[14] = RPMI 5 mM glucose + 10% dialyzed FBS, 0.00702 µM
[15] = RPMI 5 mM glucose + 10% dialyzed FBS, 0.0211 µM
[16] = RPMI 5 mM glucose + 10% dialyzed FBS, 0.0632 µM
[17] = RPMI 5 mM glucose + 10% dialyzed FBS, 0.19 µM
[18] = RPMI 5 mM glucose + 10% dialyzed FBS, 0.569 µM
[19] = RPMI 5 mM glucose + 10% dialyzed FBS, 1.71 µM
[20] = RPMI 5 mM glucose + 10% dialyzed FBS, 5.12 µM
[21] = RPMI 5 mM glucose + 10% dialyzed FBS, 15.4 µM
[22] = RPMI 5 mM glucose + 10% dialyzed FBS, 46.1 µM
[23] = RPMI 5 mM glucose + 10% FBS, 0.000781 µM
[24] = RPMI 5 mM glucose + 10% FBS, 0.00234 µM
[25] = RPMI 5 mM glucose + 10% FBS, 0.00702 µM
[26] = RPMI 5 mM glucose + 10% FBS, 0.0211 µM
[27] = RPMI 5 mM glucose + 10% FBS, 0.0632 µM
[28] = RPMI 5 mM glucose + 10% FBS, 0.19 µM
[29] = RPMI 5 mM glucose + 10% FBS, 0.569 µM
[30] = RPMI 5 mM glucose + 10% FBS, 1.71 µM
[31] = RPMI 5 mM glucose + 10% FBS, 5.12 µM
[32] = RPMI 5 mM glucose + 10% FBS, 15.4 µM
[33] = RPMI 5 mM glucose + 10% FBS, 46.1 µM

| Compound | cell viability [1] [%] | cell viability [2] [%] | cell viability [3] [%] | cell viability [4] [%] | cell viability [5] [%] | cell viability [6] [%] | cell viability [7] [%] | cell viability [8] [%] | cell viability [9] [%] | cell viability [10] [%] | cell viability [11] [%] | cell viability [12] [%] | cell viability [13] [%] | cell viability [14] [%] | cell viability [15] [%] | cell viability [16] [%] | cell viability [17] [%] | cell viability [18] [%] | cell viability [19] [%] | cell viability [20] [%] | cell viability [21] [%] | cell viability [22] [%] | cell viability [23] [%] | cell viability [24] [%] | cell viability [25] [%] | cell viability [26] [%] | cell viability [27] [%] | cell viability [28] [%] | cell viability [29] [%] | cell viability [30] [%] | cell viability [31] [%] | cell viability [32] [%] | cell viability [33] [%] |
| --- | --- | --- | --- | --- | --- | --- | --- | --- | --- | --- | --- | --- | --- | --- | --- | --- | --- | --- | --- | --- | --- | --- | --- | --- | --- | --- | --- | --- | --- | --- | --- | --- | --- |
| CC[C@H](NC(=O)[C@H](C)NC)C(=O)N1C[C@@H](O)C[C@H]1Cc1c(-c2[nH]c3cc(F)ccc3c2C[C@@H]2C[C@H](O)CN2C(=O)[C@H](CC)NC(=O)[C@H](C)NC)[nH]c2cc(F)ccc12 | 113 | 112 | 123 | 114 | 126 | 110 | 89.9 | 67.3 | 22.6 | 20.3 | 21.8 | 113 | 122 | 145 | 150 | 150 | 128 | 115 | 106 | 17.3 | 16.2 | 12.5 | – | – | – | – | – | – | – | – | – | – | – |
| CC1(N2CCC(n3c([C@@H]4CCCNC4)nc4ccccc43)CC2)CCCCCCC1 | 77.1 | 100 | 112 | 111 | 127 | 116 | 116 | 101 | 94 | 45.4 | 7.21 | 91 | 108 | 122 | 115 | 121 | 104 | 130 | 134 | 98.4 | 69.4 | 17.8 | 93.6 | 103 | 102 | 112 | 108 | 124 | 112 | 120 | 109 | 97.7 | 53.5 |
| CCC\C1=C\C(=O)NC(=S)N1 | 81.7 | 104 | 112 | 131 | 113 | 126 | 121 | 133 | 72.3 | 35 | 25.8 | 103 | 122 | 115 | 118 | 109 | 109 | 113 | 123 | 99.7 | 100 | 31.7 | 101 | 113 | 123 | 123 | 114 | 109 | 116 | 119 | 111 | 29.4 | 20.9 |
| Cn1cc(/C=C2\C(=O)Nc3cccnc32)c2ccccc21 | 118 | 138 | 122 | 138 | 157 | 138 | 138 | 146 | 126 | 123 | 98.8 | 117 | 118 | 117 | 132 | 130 | 140 | 141 | 147 | 128 | 78.2 | 84.3 | 113 | 119 | 130 | 129 | 143 | 123 | 124 | 142 | 125 | 77.1 | 89.3 |
| CC/1=C(/C(CC(=O)N1)C2=CC=C(C=C2)C(F)(F)F)C(=O)NC3=C(F)C=C4[NH]N=CC4=C3 (stereo not given) | 94.2 | 94.5 | 103 | 108 | 104 | 100 | 105 | 98.6 | 96.1 | 33.6 | 11.5 | 91.7 | 89.1 | 104 | 96.1 | 95 | 84.7 | 97.5 | 95.3 | 92.1 | 58 | 28 | 92 | 92.7 | 85.7 | 81.2 | 89.6 | 86 | 86.9 | 82.4 | 84.2 | 66.7 | 23.9 |
| Cc1cc(C(=O)N2CCN(c3cccc(Cl)c3)CC2)n(-c2ccccc2)n1 | 116 | 115 | 114 | 97.7 | 115 | 116 | 91.8 | 70.7 | 30.7 | 26.5 | 29.3 | 98 | 100 | 96.6 | 90.7 | 89.7 | 109 | 90.5 | 85.9 | 38.3 | 22 | 24.1 | 90.3 | 99.9 | 96.1 | 97.5 | 94.5 | 99.7 | 99.6 | 92.2 | 69.7 | 15.9 | 14.8 |
| COc1cc([C@H]2Oc3cc([C@H]4Oc5cc(O)cc(O)c5C(=O)[C@@H]4O)ccc3O[C@@H]2CO)ccc1O | 103 | 122 | 119 | 126 | 120 | 123 | 125 | 95.9 | 106 | 119 | 82 | 104 | 121 | 115 | 119 | 118 | 100 | 102 | 109 | 106 | 110 | 101 | 105 | 124 | 118 | 110 | 114 | 116 | 111 | 100 | 111 | 115 | 103 |
